Biological target: T1, RlmJ (Escherichia coli, UniProt P37634)
T1 sequence (P37634 1-280): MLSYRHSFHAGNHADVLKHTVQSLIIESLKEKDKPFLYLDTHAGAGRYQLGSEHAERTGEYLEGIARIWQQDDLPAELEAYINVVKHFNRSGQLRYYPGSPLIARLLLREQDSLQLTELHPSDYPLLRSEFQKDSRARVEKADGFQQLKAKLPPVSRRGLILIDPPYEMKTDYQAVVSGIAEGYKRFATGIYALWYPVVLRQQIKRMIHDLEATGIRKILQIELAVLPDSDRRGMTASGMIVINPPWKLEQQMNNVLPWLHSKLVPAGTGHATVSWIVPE
Assay: ITC and DSF
Type: binding

A Kd of 1700 ± 200 nM was found for `Nc1ncnc2c1ncn2[C@@H]1O[C@H](C[C@@H](N)CC[C@H](N)C(=O)O)[C@@H](O)[C@H]1O` [sinefungin] in this work.

— paper PMC6546350 (RNA Biology, 2019)
